Test results from publication PMC9101642 (Molecules, 2022).
Marks after values point to notes of the source that are not given here.

How the values were obtained:
[1] = MTT antiproliferative assay (neutral control); settings: human
MCF-7 cells = assay: Cell cycle distribution by flow cytometry; type: cell-based, human; settings: 24 h
[2] = test system: Ishikawa endometrial adenocarcinoma cells; assay: Antiproliferative assay; type: cell-based; settings: Homo sapiens, growth inhibition
Source text: As SERMs profile is often associated with the stimulation of endometrial cell proliferation and an increase in the incidence of endometrial cancer (EC), the herein compounds were therefore evaluated against Ishikawa endometrial adenocarcinoma cells (Table 8, Supplementary Material Figures […]). […] However, future experimental elaboration, currently beyond the authors' experimental facilities, is required to confirm compounds' promising profiles in terms of no EC induction.

MCF-7 cell lines = assay: MTT antiproliferative assay; type: cell-based, human; settings: for IC50: Homo sapiens, MCF7, growth inhibition, 48 h, read-out: MCF-7 (IC50 nM); for SI: selectivity index [IC50(MDA-MB-231)]/[IC50(MCF-7)]
ERα [3] = biological target: T1, ERα (Homo sapiens, UniProt P03372); assay: ERα down-regulation immunofluorescence assay in MCF-7; type: cell-based; settings: ERα downregulation measured in MCF-7; read-out: MCF-7 DR (IC50 nM)
T1 sequence (P03372 1-595): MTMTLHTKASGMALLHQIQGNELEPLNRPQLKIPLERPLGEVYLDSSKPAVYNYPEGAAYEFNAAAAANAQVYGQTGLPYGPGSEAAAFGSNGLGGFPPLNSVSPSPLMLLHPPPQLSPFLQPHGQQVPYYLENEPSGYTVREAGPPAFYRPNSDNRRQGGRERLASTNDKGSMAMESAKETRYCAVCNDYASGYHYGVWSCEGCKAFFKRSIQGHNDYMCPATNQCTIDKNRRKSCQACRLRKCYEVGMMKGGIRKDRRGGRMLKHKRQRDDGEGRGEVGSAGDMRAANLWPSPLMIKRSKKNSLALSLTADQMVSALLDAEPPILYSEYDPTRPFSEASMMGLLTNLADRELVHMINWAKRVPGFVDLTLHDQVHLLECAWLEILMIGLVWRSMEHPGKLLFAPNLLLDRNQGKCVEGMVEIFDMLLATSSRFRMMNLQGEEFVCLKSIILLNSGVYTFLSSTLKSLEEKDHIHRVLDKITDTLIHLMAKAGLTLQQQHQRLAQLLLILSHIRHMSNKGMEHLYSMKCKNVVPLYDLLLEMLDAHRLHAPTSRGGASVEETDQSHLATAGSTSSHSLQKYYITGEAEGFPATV

[4] = test system: progesterone receptor (PR); assay: ERα functional antagonism cell assay (PR as biomarker) in MCF-7; type: cell-based; settings: Homo sapiens, MCF7; progesterone receptor as biomarker for ERα antagonism in MCF-7
MDA-MB-231 cell lines = assay: MTT antiproliferative assay; type: cell-based, human; settings: Homo sapiens, MDA-MB-231; growth inhibition, 48 h; read-out: MDA-MB-231 (IC50 nM)
ERβ = ERβ (Homo sapiens, UniProt Q92731); assay: Fluorescence polarization competition assay: antagonistic potency and relative binding affinity; settings: for IC50: concentration that antagonizes 50% of ERβ signaling activity, read-out: ERβ (IC50 nM); for logRBA ERβ: log of % relative binding affinity, estradiol = 100%; for Ki: read-out: Ka ERβ
ERα [5] = biological target: T1, ERα; assay: as above; settings: for IC50: concentration that antagonizes 50% of ERα signaling activity, read-out: ERα (IC50 nM); for logRBA ERα: log of % relative binding affinity, estradiol = 100%; for Ki: read-out: Ka ERα
[6] = calculated antagonistic (inhibitory) constant
[7] = 1 nM as lower concentration (3DPQ-5, 3DPQ-6, 3DPQ-8)

Chain of ERβ (Q92731 whole entry): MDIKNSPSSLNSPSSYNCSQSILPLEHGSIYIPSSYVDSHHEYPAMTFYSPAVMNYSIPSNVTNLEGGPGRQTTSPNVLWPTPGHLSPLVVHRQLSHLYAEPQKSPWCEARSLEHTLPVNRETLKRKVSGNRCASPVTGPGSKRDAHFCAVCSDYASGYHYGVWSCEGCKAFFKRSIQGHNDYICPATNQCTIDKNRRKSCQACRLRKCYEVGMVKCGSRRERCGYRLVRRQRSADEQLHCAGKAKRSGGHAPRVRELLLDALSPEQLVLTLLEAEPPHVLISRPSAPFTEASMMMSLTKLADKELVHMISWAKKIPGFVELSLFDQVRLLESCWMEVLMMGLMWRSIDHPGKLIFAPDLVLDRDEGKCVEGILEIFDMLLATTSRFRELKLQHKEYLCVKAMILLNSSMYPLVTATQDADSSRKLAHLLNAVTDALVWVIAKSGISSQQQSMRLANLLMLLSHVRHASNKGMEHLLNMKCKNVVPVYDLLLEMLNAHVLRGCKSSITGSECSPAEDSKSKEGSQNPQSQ

| Compound | IC50 at 48 h [1] | IC50 [2] | IC50 (MCF-7 cell lines) | SI (MCF-7 cell lines) | IC50 (ERα [3]) | IC50 [4] | IC50 (MDA-MB-231 cell lines) | IC50 (ERβ) | logRBA ERβ (ERβ) | IC50 (ERα [5]) | logRBA ERα (ERα [5]) | Cell Cycle (%) G0/G1 (MCF-7 cells; [7]) | Cell Cycle (%) G2/M (MCF-7 cells; [7]) | Cell Cycle (%) S (MCF-7 cells; [7]) | Cell Cycle (%) G0/G1 (MCF-7 cells; 10 nM (3DPQ-5, 3DPQ-6, 3DPQ-8)) | Cell Cycle (%) G2/M (MCF-7 cells; 10 nM (3DPQ-5, 3DPQ-6, 3DPQ-8)) | Cell Cycle (%) S (MCF-7 cells; 10 nM (3DPQ-5, 3DPQ-6, 3DPQ-8)) | Ki (ERβ; [6]) | Ki (ERα [5]; [6]) | ERα potency, fold more potent than 4-OHT (ERα [5]; ratio of IC50 values) | other results |
| --- | --- | --- | --- | --- | --- | --- | --- | --- | --- | --- | --- | --- | --- | --- | --- | --- | --- | --- | --- | --- | --- |
| CC(=O)c1cc(C(=O)O[C@@H]2/C=C/C(=O)O[C@@H](O)CCC/C=C/[C@@H]3C[C@H](O)C[C@H]32)ccc1OCCN1C=Cc2ccccc2C1 [Compound 3DPQ-7, (1R,2E,6R,10E,11aS,13S,14aR)-6,13-dihydroxy-4-oxo-4,6,7,8,9,11a,12,13,14,14a-decahydro-1H-cyclopenta[f][1]oxacyclotridecin-1-yl 3-acetyl-4-(2-(isoquinolin-2(1H)-yl)ethoxy)benzoate] | > 0.1 µM | 1.74 ± 0.43 nM | 0.78 ± 0.52 nM | 66.61 ^‡,§ | > 100 nM | > 100 nM | 52 ± 0.68 nM | 72.34 ± 0.17 nM | 0.09 ^†,‡,§ | 0.64 ± 0.13 nM | 2.14 ^†,‡ |  |  |  |  |  |  |  |  |  | Cell Cycle (%) G0/G1 (MCF-7 cells; 0.1 nM): 73.25 ± 2.54 *^,†,‡,§ %; Cell Cycle (%) G2/M (MCF-7 cells; 0.1 nM): 12.69 ± 2.64 *^,†,‡,§ %; Cell Cycle (%) S (MCF-7 cells; 0.1 nM): 14.06 ± 1.58 *^,†,‡,§ %; Cell Cycle (%) G0/G1 (MCF-7 cells; 1 nM): 75.71 ± 1.43 *^,†,‡,§ %; Cell Cycle (%) G2/M (MCF-7 cells; 1 nM): 9.53 ± 3.54 *^,†,‡,§ %; Cell Cycle (%) S (MCF-7 cells; 1 nM): 14.77 ± 1.46 *^,†,‡,§ %; MCF-7 antiproliferative potency, fold higher than Ral (MCF-7 cell lines; ratio of IC50 values): 1.14 fold; Ka ERβ (nM) (ERβ; [6]): 40.64 ^†,‡,§ nM; Ka ERα (nM) (ERα [5]; [6]): 0.14 ^†,‡ nM; ERα potency, fold higher than Ral (ERα [5]; ratio of IC50 values): 1.16 fold |
| CC(=O)c1cc(C(=O)OC2C=CC(=O)OC(O)CCCC=CC3CC(O)CC32)ccc1OCCN1C(=O)CCC1=O (stereo not shown) [Compound 3DPQ-5, -decahydro-1H-cyclopenta[f][1]oxacyclotridecin-1-yl 3-acetyl-4-(2-(2,5-dioxopyrrolidin-1-yl)ethoxy)benzoate] | > 0.1 µM | 1.42 ± 0.32 nM | 1.02 ± 0.64 nM | 51.61 ^‡,§ | > 100 nM | > 100 nM | 52.6 ± 0.69 nM | 74.41 ± 0.46 nM | 0.08 ^†,‡,§ | 0.81 ± 0.43 nM | 2.04 ^‡ | 71.78 ± 0.67 *^,†,‡,§ % | 19.01 ± 3.55 *^,†,‡,§ % | 9.21 ± 1.95 *^,†,‡,§ % | 74.24 ± 2.15 *^,†,‡,§ % | 15.85 ± 4.43 *^,†,‡,§ % | 9.92 ± 0.76 *^,†,‡,§ % | 0.0418 µM | 0.00018 µM | 1.38 fold |  |
| CC(=O)c1cc(C(=O)O[C@@H]2/C=C/C(=O)O[C@@H](O)CCC/C=C/[C@@H]3C[C@H](O)C[C@H]32)ccc1OCCN1CCCC2CCCNC21 (stereo partly drawn) [Compound 3DPQ-8, (1R,2E,6R,10E,11aS,13S,14aR)-6,13-dihydroxy-4-oxo-4,6,7,8,9,11a,12,13,14,14a-decahydro-1H-cyclopenta[f][1]oxacyclotridecin-1-yl 3-acetyl-4-(2-(octahydro-1,8-naphthyridin-1(2H)-yl)ethoxy)benzoate] | > 0.1 µM | 1.98 ± 0.32 nM | 1.06 ± 0.45 nM | 40.15 ^‡,§ | > 100 nM | > 100 nM | 42.56 ± 0.35 nM | 72.3 ± 0.78 nM | 0.09 ^†,‡,§ | 0.81 ± 0.14 nM | 2.04 ^‡ | 72.39 ± 1.43 *^,†,‡,§ % | 15.11 ± 2.56 *^,†,‡,§ % | 12.50 ± 1.22 *^,†,‡,§ % | 74.85 ± 2.54 *^,†,‡,§ % | 11.95 ± 2.45 *^,†,‡,§ % | 13.21 ± 2.15 *^,†,‡,§ % | 0.0406 µM | 0.00018 µM | 1.38 fold |  |
